In US6747061B2, “N-substituted dithiocarbamates for the treatment of biological disorders” (AtheroGenics, Inc., priority 2000, dated 2004):
Where a name gives a salt, the structure may show the parent alone.

These compounds were tested on VCAM-1 (assay: VCAM-1 assay: enzyme immunoassay of TNF-α induced VCAM-1 expression in endothelial cells). Details: HAEC, TNF-α 1 ng/ml, approximately 16 hours; read-out: VCAM-1 IC50.
Format: cell-based, Human
Method: The VCAM-1 assay is an enzyme immunoassay to detect tumor necrosis factor alpha (TNF-α) induced Vascular Adhesion Molecule (VCAM-1) expression in endothelial cells.
Human endothelial cells (HAEC) were purchased from Clonetics and maintained in EGM media (Clonetics) supplemented with 5% fetal bovine serum (FBS). In a typical experiment, cells were seeded in 96-well plates. The next day cells were stimulated with TNF-α (1 ng/ml) purchased from Boehringer Mannheim in the presence or absence of compounds dissolved in dimethylsulphoxide (DMSO). To establish a dose curve for each compound, four concentrations in 2 fold increments were used. Cells were exposed to TNF-α and compounds for approximately 16 hours. The next day, cells were examined under microscope to score for visual signs of toxicity.
Media was discarded and the cells were washed once with Hanks buffered saline solution (HBSS)/phosphate buffered solution (PBS) 91:1). Primary mouse monoclonal antibody against VCAM-1 purchased from Southern Biotechnology Associates (0.25 μg/ml in HBSS/PBS+5% FBS) was added and incubated at 37° C. for 30 minutes. Cells were washed with HBSS/PBS three times, and secondary antibody horse radish peroxidase (HRP)-conjugated goat anti-mouse IgG purchased from Southern Biotechnology Associates (1:500 in HBSS/PBS+5% FBS) was added and incubated at 37° C. for 30 minutes. Cells were washed with HBSS/PBS four times and peroxidase substrate 3.3′,5,5′-tetramethyl-benzidine (TMB) was added and incubated in the dark at room temperature until there was adequate blue color development. The length of incubation time was typically 5-15 minutes. 2 N sulfuric acid was added to stop the color development and the data was collected by reading the absorbance at O.D. 450 nm. The result was expressed as the percentage of control sample (cells stimulated by TNF without any compound).
Work on `CCOC(=O)CCCNC(=S)SCC1CCCO1` (centres unmarked) [4-(Tetrahydrofuran-2-ylmethylsulfanyllthio-carbonylamino)butyric acid ethyl ester] yielded an IC50 of 5 µM.
`NC(CSC(=S)NCc1ccccc1)C(=O)O` (centres unmarked) [(2-Amino-3-benzylthiocarbamoylsulfanyl)propionic acid] showed an IC50 of 7 µM.

Same assay, conditions: Homo sapiens, Endothelial cell, 16 h, read-out: VCAM-1 IC50 (μM)
`COC(=O)CCSC(=S)NCc1ccco1` [3-(Furan-2-ylmethylthiocarbamoyl-sulfanyl)propionic acid methyl ester] was tested, and the IC50 was 6 µM.
In the case of `COC(=O)CCCSC(=S)NCCc1cc2ccccc2[nH]1` [4-[2-(1H-Indol-2-yl)ethylthiocarbamoyl-sulfanyl]butyric acid methyl ester], the IC50 is reported as 5 µM.
`S=C(NCc1ccc(Cl)cc1Cl)SCc1ccc(Cl)cc1Cl` [(2,4-dichlorobenzyl)dithiocarbamic acid 2,4-dichlorobenzyl ester] showed an IC50 of 8 µM.
`CC(C)CNC(=S)SCc1ccc(Cl)cc1Cl` [Isobutyldithiocarbamic acid 2,4-dichlorobenzyl ester] was tested, and the IC50 was 32 µM.

Same assay, conditions: Homo sapiens, Endothelial cell; HAEC, TNF-α 1 ng/ml, approximately 16 hours; read-out: VCAM-1 IC50
With `CCN(CC)CCNC(=S)SCCC(=O)OC` [3-(2-Diethylamino-ethylthiocarbamoylsulfanyl)-propionic acid methyl ester] the IC50 was 37 µM.
For `CCOC(=O)NC(=S)SCCC(=O)OC` [3-(Ethoxycarbonylthiocarbamoylsulfanyl)propionic acid methyl ester], the IC50 was 50 µM.
In the case of `COC(=O)CCCSC(=S)NC[C@H]1CCCO1` [4-((R)-Tetrahydrofuran-2-ylmethylthiocarbamoyl-sulfanyl)butyric acid methyl ester], the IC50 is reported as 3 µM.
`COC(=O)CCCSC(=S)NC[C@@H]1CCCO1` [4-((S)-Tetrahydrofuran-2-ylmethylthiocarbamoyl-sulfanyl)butyric acid methyl ester] showed an IC50 of 3 µM.
Compound `C=CCNC(=S)SCCCC(=O)OC` [4-(Allylthiocarbamoylsulfanyl)butyric acid methyl ester] has an IC50 of 30 µM.
`COC(=O)CCCSC(=S)NCc1ccccc1` [4-(Benzylthiocarbamoylsulfanyl)butyric acid methyl ester] showed an IC50 of 25 µM.
For `COC(=O)CCCSC(=S)NCC1CCCCC1` [4-(Cyclohexylmethylthiocarbamoylsulfanyl)butyric acid methyl ester], the IC50 was 40 µM.
With `COC(=O)CCCSC(=S)NCCC1CCCN1C` (centres unmarked) [4-[2-(1-Methylpyrrolidin-2-yl)ethylthiocarbamoyl-sulfanyl]butyric acid methyl ester] the IC50 was 18 µM.
With `COc1cccc(CNC(=S)SCC(=O)C(C)(C)C)c1` [(3-Methoxybenzyl)dithiocarbamic acid 3,3-dimethyl-2-oxo-butyl ester] the IC50 was 2 µM.
`COCCCNC(=S)Sc1ccc(Cl)cc1` [(3-Methoxypropyl)dithiocarbamic acid 4-chlorophenyl ester] was tested, and the IC50 was 6 µM.
`S=C(NCc1cccnc1)SCc1cc(Cl)sc1Cl` [(Pyridin-3-ylmethyl)dithiocarbamic acid 2,5-dichloro-thiophen-3-ylmethyl ester] showed an IC50 of 1.5 µM.
For `C=CCNC(=S)SCCN` [Allyldithiocarbamic acid 2-aminoethyl ester hydrochloride], the IC50 was 12 µM.
For `COCCNC(=S)SCCCC(=O)OC` [II: X=CH3O, Y′=C(O)OCH3, N=2, m=3, 4-(2-Methoxy-ethylthiocarbamoylsulfanyl)butyric acid methyl ester], the IC50 was 11 µM.
`CNC(=S)SCCC(=O)OC` [II: X=H, Y′=C(O)OCH3, N=1, m=2, 3-(Methylthiocarbamoylsulfanyl)propionic acid methyl ester] was tested, and the IC50 was 14 µM.
`COC(=O)CCSC(=S)NCC1CCCO1` (centres unmarked) [III: Y′=(CH2)2C(O)OCH3, 3-(Tetrahydrofuran-2-ylmethylthiocarbamoylsulfanyl)-propionic acid methyl ester] gave an IC50 of 3 µM.
In the case of `CC(=O)CCCSC(=S)NCC1CCCO1` (centres unmarked) [III: Y′=(CH2)3C(O)CH3, (Tetrahydrofuran-2-ylmethyl)dithiocarbamic acid 4-oxo-pentyl ester], the IC50 is reported as 7 µM.
Work on `O=C(O)CCCSC(=S)NCC1CCCO1` (centres unmarked) [III: Y′=(CH2)3C(O)OH, 4-(Tetrahydrofuran-2-ylmethylthiocarbamoylsulfanyl)-butyric acid] yielded an IC50 of 7 µM.
Work on `N#CCCCSC(=S)NCC1CCCO1` (centres unmarked) [III: Y′=(CH2)3CN, (Tetrahydrofuran-2-ylmethyl)dithiocarbamic acid 3-cyano-propyl ester] yielded an IC50 of 3 µM.
`COC(=O)CCCCCSC(=S)NCC1CCCO1` (centres unmarked) [III: Y′=(CH2)5C(O)OCH2CH3, 6-(Tetrahydrofuran-2-ylmethylthiocarbamoyl-sulfanyl)hexanoic acid methyl ester] gave an IC50 of 11 µM.
`COC(=O)CSC(=S)NCC1CCCO1` (centres unmarked) [III: Y′=CH2C(O)OCH3, (Tetrahydrofuran-2-ylmethylthiocarbamoylsulfanyl)acetic acid methyl ester] gave an IC50 of 10 µM.
`CSC(=S)NCC1CCCO1` (centres unmarked) [III: Y′=CH3, (Tetrahydrofuran-2-ylmethyl)dithiocarbamic acid methyl ester] showed an IC50 of 6.5 µM.
Work on `CNC(=S)Sc1ccc(F)cc1F` [Methyldithiocarbamic acid 2,4-difluorophenyl ester] yielded an IC50 of 18 µM.
Compound `CCCCCCCCCCCCSC(=S)NCCc1ccccc1` [Phenethyldithiocarbamic acid dodecyl ester] has an IC50 of 30 µM.
